Measurements: US9611292B2, “Peptide inhibitors of serotonin 5-HT2c receptors:PTEN interaction” (THE BOARD OF REGENTS OF THE UNIVERSITY OF TEXAS SYSTEM, priority 2011, dated 2017)
“Also recorded” adds a separate entry of the source.

What was measured:
rats = test: 1-choice serial reaction time task, impulsive action (premature responses); type: in vivo, rat; conditions: 1-choice serial reaction time task, single agent
Text: FIG. 23 illustrates additional behavioral effects of TAT-3L4F.

5-HT2CR = test: Cai++ release in 5-HT2CR-CHO cells; type: cell-based
Text: (§1) The 5-HT2CR:PTEN complex occurs in rat brain regions implicated in palatable food reward. […] These cells have been employed for 5-HT2CR signaling studies. […] Providing 3L4F and fragments thereof disrupt the complex in the cell and result in the lack of co-localization of the molecules by immunohistochemistry or by immunoprecipitation studies. 5-HT2CR and PTEN can be co-immunoprecipitated from brain tissue samples. Additional studies using the split luciferase assay also detect direct coupling of 5-HT2CR with PTEN.
Functional analysis of the complex was investigated using Cai^++ release in 5-HT2CR-CHO cells. […] The studies have shown that the 3L4F peptide enhances Cai^++ release via a 5-HT2CR specific mechanism acting down stream ligand binding.
FIG. 15 compares the efficacy of derivatives 210 and A1 in terms of % 1 nM 5-HT induced Cai^++ release in 5-HT2CR-CHO cells. FIG. 16 compares the efficacy of derivatives 210 and A2 in terms of % 1 nM 5-HT induced Cai^++ Release in 5-HT2CR-CHO cells. FIG. 17 compares the efficacy of derivatives 210 and A3 in terms of % 1 nM 5-HT induced Cai^++ release in 5-HT2CR-CHO cells. FIG. 18 compares the efficacy of derivatives 210 and A4 in terms of % 1 nM 5-HT induced Cai^++ release in 5-HT2CR-CHO cells. FIG. 19 compares the efficacy of derivatives 210 and A5 in terms of % 1 nM 5-HT induced Cai^++ release in 5-HT2CR-CHO cells. FIG. 20 compares the efficacy of derivatives 210 and A6 in terms of % 1 nM 5-HT induced Cai^++ release in 5-HT2CR-CHO cells. FIG. 21 compares the efficacy of derivatives 210 and A8 in terms of % 1 nM 5-HT induced […] release in 5-HT2CR-CHO cells.

5-HT2CR:PTEN complex = test: in situ localization (immunohistochemistry / immunoprecipitation) of 5-HT2CR:PTEN association in cells; type: cell-based; conditions: for disrupting activity on 5-HT2CR:PTEN association: summary statement, assay not specified
Text: as §1
Peptides described herein enhance 5-HT2CR signaling and peptide disruption of the serotonin (5-HT) 5-HT2CR interaction with protein phosphatase and tensin (PTEN). This interaction is functionally important to the 5-HT2CR signalosome.

5-HT2AR = target: T1, 5-HT2AR (Homo sapiens, UniProt P28223); test: Cai++ release in 5-HT2AR-CHO cells; type: cell-based
T1 construct: expressed in transfected cells; host or cells: CHO
T1 sequence (P28223 whole entry): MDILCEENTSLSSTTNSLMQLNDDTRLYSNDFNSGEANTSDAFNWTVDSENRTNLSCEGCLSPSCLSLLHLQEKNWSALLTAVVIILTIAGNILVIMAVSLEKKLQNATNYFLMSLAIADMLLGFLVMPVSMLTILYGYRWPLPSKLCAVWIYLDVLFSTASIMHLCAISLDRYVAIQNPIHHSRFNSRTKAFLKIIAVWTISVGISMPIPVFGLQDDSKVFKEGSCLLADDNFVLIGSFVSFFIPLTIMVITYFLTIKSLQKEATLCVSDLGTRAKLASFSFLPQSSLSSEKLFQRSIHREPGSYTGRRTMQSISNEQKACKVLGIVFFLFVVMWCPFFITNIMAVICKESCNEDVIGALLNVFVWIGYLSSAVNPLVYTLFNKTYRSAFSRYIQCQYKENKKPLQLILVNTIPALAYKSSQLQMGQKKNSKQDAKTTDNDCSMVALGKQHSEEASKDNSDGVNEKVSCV

5-HT2CR:PTEN interaction = test: split luciferase assay of direct 5-HT2CR:PTEN interaction in live cells; type: cell-based
Text: In addition split luciferase assays were used to detect direct coupling of 5-HT2CR with PTEN.

Compound: c1cc2c3c(c1)[C@H]1CCC[C@H]1N3CCNC2 [WAY163909]
- impulsive action (premature responses), agent alone (rats): neither of which have effects on their own

Compound: PNQDQNAR [derivative 210]
- 5-HT (1 nM) induced Cai++ release (5-HT2CR): retain 3L4F activity; also recorded: increase
- disrupting activity on 5-HT2CR:PTEN association (5-HT2CR:PTEN complex): active fragment

Compound: PNQDQNARRRKKKERR [3L4F]
- 5-HT (1 nM) induced Cai++ release (5-HT2CR): increases
- WAY163909 induced Cai++ release (5-HT2CR; selective orthosteric 5-HT2CR agonist WAY163909): potentiates
- 3L4F-enhanced 5-HT induced Cai++ release, effect of 5-HT2CR antagonist (5-HT2CR; with 5-HT2CR antagonist): inhibits
- 5-HT induced Cai++ release (5-HT2AR): does not alter
- association of 5-HT2CR and PTEN (5-HT2CR:PTEN complex; quantitation of in situ localization studies): disrupts the association
- disrupting activity on 5-HT2CR:PTEN association (5-HT2CR:PTEN complex): disrupter
- direct 5-HT2CR:PTEN interaction (5-HT2CR:PTEN interaction; NLuc fused to 3rd intracellular loop of 5-HT2CR, CLuc fused to PTEN): disrupts
- direct 5-HT2CR:PTEN interaction (5-HT2CR:PTEN interaction; NLuc fused to full length 5-HT2CR): disrupts

Compound: QNARRRKK [derivative 212]
- 5-HT (1 nM) induced Cai++ release (5-HT2CR): less efficacious than 3L4 F
- disrupting activity on 5-HT2CR:PTEN association (5-HT2CR:PTEN complex): less disrupting activity than the 210 fragment

Compound: RRKKKERR [derivative 214]
- 5-HT (1 nM) induced Cai++ release (5-HT2CR): less efficacious than 3L4 F
- disrupting activity on 5-HT2CR:PTEN association (5-HT2CR:PTEN complex): less disrupting activity than the 210 fragment

Compound: V27-R45: 5-HT2CR N-terminus peptide fragment V27-R45 (VSPVAAIVTDIFNTSDGGR) [reference compound]
- 5-HT (1 nM) induced Cai++ release (5-HT2CR): inactive
